Laboratory results as given in patent publication US20230089368A1, “POLYAROMATIC UREA DERIVATIVES AND THEIR USE IN THE TREATMENT OF MUSCLE DISEASES” (ANAGENESIS BIOTECHNOLOGIES S.A.S., priority 2019, published 2023).

Tests used:
[1] = test system: satellite-like cells (Pax7-positive cells) in hMP; assay: Myotube assay: Pax7-positive (satellite-like) cell quantification; format: cell-based, human; set-up: key to Pax7% (pool of Pax7-positive cells) / Pax7: −: Depletes the pool of cells, while positively affects the myotubes; +: Maintains or increases the pool of cells, with at least 1 of the highest concentration known to be cytotoxic; ++: Maintains or increases the pool of cells, without any toxicity; details: for Pax7% (pool of Pax7-positive cells): myotube assay, compounds incubated 3 days
Outline: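 DMD hiPSC-derived muscle progenitors (hMP) proliferated 4 days, then plated on collagen I in K5 medium with 5 μM Y-27632. Compound added at 1.5 nM–30 μM for 3 days at 37° C, then cells fixed and immunostained. Pax7-positive cells counted as percentage of total nuclei, duplicates averaged.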

[2] = test system: muscle progenitors (hMP) from DMD hiPSC or WT hiPSC; assay: Myotube assay: myogenic activity (total myotube area per well); format: cell-based, human; details: for Emax / EC50: Homo sapiens, 72 h, myotube assay, compounds incubated 3 days; for Emax: read-out: MA (normalized Myotube Area, efficacy); for EC50: 10 points dose-response 1.5 nM to 30 μM, read-out: EC50 (myogenic activity, half-maximal generation of myotubes)
Outline: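 DMD or WT hiPSC-derived muscle progenitors plated on collagen I in K5 medium with 5 μM Y-27632, treated with compound (1.5 nM–30 μM) for 3 days at 37° C. Cells were fixed, stained for alpha-actinin and imaged for total myotube area per well. EC50 and normalized myotube area (MA) taken from duplicate-averaged data.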

SMILES	percentage of Pax7-positive cells ([1]; DMD hMP, 10 concentrations 1.5 nM to 30 μM, 3 days, FIG. 3)	Pax7% (pool of Pax7-positive cells) [1]	total myotube surface/well (myogenic activity) ([2]; DMD hMP, 10 concentrations 1.5 nM to 30 μM, 3 days, FIG. 2)	Emax [2] [%]	EC50 [2] [µM]
CC(C)n1nc(C(C)(C)C)cc1NC(=O)Nc1ccc(Oc2ccnc3[nH]c(=O)cnc23)cc1F [(i), 1-(3-(tert-butyl)-1-isopropyl-1H-pyrazol-5-yl)-3-(2-fluoro-4-((3-oxo-3,4-dihydropyrido[2,3-b]pyrazin-8-yl)oxy)phenyl)urea]	dose-dependent increase	+	dose-dependent increase	50 to 75	–
CC(C)(C)c1cc(NC(=O)Nc2ccc(Oc3ccnc4[nH]c(=O)cnc34)cc2F)n(-c2ccc3ncccc3c2)n1 [(n), 1-(3-(tert-butyl)-1-(quinolin-6-yl)-1H-pyrazol-5-yl)-3-(2-fluoro-4-((3-oxo-3,4-dihydropyrido[2,3-b]pyrazin-8-yl)oxy)phenyl)urea]	–	+	–	≥ 75	–
CCC(C)c1cc(NC(=O)Nc2ccc(Oc3ccnc4[nH]c(=O)cnc34)cc2F)n(-c2ccccc2)n1 (centres unmarked) [(c), 1-(3-(sec-butyl)-1-phenyl-1H-pyrazol-5-yl)-3-(2-fluoro-4-((3-oxo-3,4-dihydropyrido[2,3-b]pyrazin-8-yl)oxy)phenyl)urea]	–	+	–	50 to 75	–
CSc1cc(Oc2ccnc3[nH]c(=O)cnc23)ccc1NC(=O)Nc1cc(C(C)(C)C)on1 [(dh), 1-(5-(tert-butyl)isoxazol-3-yl)-3-(2-(methylthio)-4-((3-oxo-3,4-dihydropyrido[2,3-b]pyrazin-8-yl)oxy)phenyl)urea]	–	+	–	≥ 75	–
CSc1cc(Oc2ccnc(NC(=O)CO)c2)ccc1NC(=O)Nc1cc(C(C)(C)C)nn1-c1ccccc1 [(dq), N-(4-(4-(3-(3-(tert-butyl)-1-phenyl-1H-pyrazol-5-yl)ureido)-3-(methylthio)phenoxy)pyridin-2-yl)-2-hydroxyacetamide]	–	+	–	≥ 75	–
CSc1cc(Oc2ccnc(N(CCN(C)C)C(=O)OC(C)(C)C)c2)ccc1NC(=O)Nc1cc(C(C)(C)C)nn1-c1ccccc1 [(ch), Tert-Butyl (4-(4-(3-(3-(tert-butyl)-1-phenyl-1H-pyrazol-5-yl)ureido)-3-(methylthio)phenoxy)pyridin-2-yl)(2-(dimethylamino)ethyl)carbamate]	–	+	–	50 to 75	–
O=C(Nc1ccc(Oc2ccnc3[nH]c(=O)cnc23)cc1F)Nc1cc(C2CC2)nn1-c1ccccc1 [(e), 1-(3-cyclopropyl-1-phenyl-1H-pyrazol-5-yl)-3-(2-fluoro-4-((3-oxo-3,4-dihydropyrido[2,3-b]pyrazin-8-yl)oxy)phenyl)urea]	–	++	–	25 to 50	–
CC(C)(C)c1cc(NC(=O)Nc2ccc(Oc3ccnc4[nH]c(=O)cnc34)cc2)n(-c2ccccc2)n1 [(s), 1-(3-(tert-butyl)-1-phenyl-1H-pyrazol-5-yl)-3-(4-((3-oxo-3,4-dihydropyrido[2,3-b]pyrazin-8-yl)oxy)phenyl)urea]	–	+	–	50 to 75	–
CSc1cc(Oc2ccnc3[nH]c(=O)cnc23)ccc1NC(=O)Nc1nnc(C(C)(C)C)s1 [(z), 1-(5-(tert-butyl)-1,3,4-thiadiazol-2-yl)-3-(2-(methylthio)-4-((3-oxo-3,4-dihydropyrido[2,3-b]pyrazin-8-yl)oxy)phenyl)urea]	–	++	–	≥ 75	–
CNC(=O)c1cncc(Oc2ccc(NC(=O)Nc3cc(C(C)(C)C)nn3-c3ccccc3)c(SC)c2)c1 [(ai), 5-(4-(3-(3-(tert-butyl)-1-phenyl-1H-pyrazol-5-yl)ureido)-3-(methylthio)phenoxy)-N-methylnicotinamide]	–	++	–	50 to 75	–
CSc1cc(Oc2ccnc(NS(C)(=O)=O)c2)ccc1NC(=O)Nc1cc(C(C)(C)C)no1 [(dl), N-(4-(4-(3-(3-(tert-butyl)isoxazol-5-yl)ureido)-3-(methylthio)phenoxy)pyridin-2-yl)methanesulfonamide]	–	++	–	≥ 75	–
CNC(=O)c1cc(Oc2ccc(NC(=O)Nc3cc(C(C)(C)C)nn3-c3ccc4ncccc4c3)c3ccccc23)ccn1 [(bf), 4-((4-(3-(3-(tert-butyl)-1-(quinolin-6-yl)-1H-pyrazol-5-yl)ureido)naphthalen-1-yl)oxy)-N-methylpicolinamide]	–	+	–	≥ 75	–
CNC(=O)c1cc(Oc2ccc(NC(=O)Nc3cc(C(C)(C)C)nn3-c3ccc4ncccc4c3)c(SC)c2)ccn1 [(ag), 4-(4-(3-(3-(tert-butyl)-1-(quinolin-6-yl)-1H-pyrazol-5-yl)ureido)-3-(methylthio)phenoxy)-N-methylpicolinamide]	–	++	–	≥ 75	–
CNC(=O)c1ccc(Oc2ccc(NC(=O)Nc3cc(C(C)(C)C)nn3-c3ccccc3)c(SC)c2)cn1 [(ap), 5-(4-(3-(3-(tert-butyl)-1-phenyl-1H-pyrazol-5-yl)ureido)-3-(methylthio)phenoxy)-N-methylpicolinamide]	–	++	–	25 to 50	–
CSc1cc(Oc2ccnc3[nH]c(=O)cnc23)ccc1NC(=O)Nc1nnc(-c2ccccc2)s1 [(ay), 1-(2-(methylthio)-4-((3-oxo-3,4-dihydropyrido[2,3-b]pyrazin-8-yl)oxy)phenyl)-3-(5-phenyl-1,3,4-thiadiazol-2-yl)urea]	–	++	–	≥ 75	1 to 5
CNC(=O)c1cc(Oc2cccc(NC(=O)Nc3cc(C(C)(C)C)nn3-c3ccccc3)c2)ccn1 [(aa), 4-(3-(3-(3-(tert-butyl)-1-phenyl-1H-pyrazol-5-yl)ureido)phenoxy)-N-methylpicolinamide]	–	++	–	50 to 75	1 to 5
CSc1cc(Oc2ccnc3[nH]c(=O)cnc23)ccc1NC(=O)Nc1cc(C(C)(C)C)nn1C1CCCCC1 [(bn), 1-(3-(tert-butyl)-1-cyclohexyl-1H-pyrazol-5-yl)-3-(2-(methylthio)-4-((3-oxo-3,4-dihydropyrido[2,3-b]pyrazin-8-yl)oxy)phenyl)urea]	–	++	–	50 to 75	–
Cc1ccc(-n2nc(C(C)(C)C)cc2NC(=O)Nc2ccc(Oc3ccnc4[nH]c(=O)cnc34)cc2C(F)(F)F)cc1 [(az), 1-(3-(tert-butyl)-1-(p-tolyl)-1H-pyrazol-5-yl)-3-(4-((3-oxo-3,4-dihydropyrido[2,3-b]pyrazin-8-yl)oxy)-2-(trifluoromethyl)phenyl)urea]	–	++	–	≥ 75	–
CC(C)(C)c1nc(NC(=O)Nc2ccc(Oc3ccnc4[nH]c(=O)cnc34)cc2F)n(-c2ccccc2)n1 [(p), 1-(3-(tert-butyl)-1-phenyl-1H-1,2,4-triazol-5-yl)-3-(2-fluoro-4-((3-oxo-3,4-dihydropyrido[2,3-b]pyrazin-8-yl)oxy)phenyl)urea]	–	++	–	25 to 50	–
CC(C)(C)c1cc(NC(=O)Nc2ccc(Oc3ccnc4[nH]c(=O)cnc34)cn2)n(-c2ccccc2)n1 [(u), 1-(3-(tert-butyl)-1-phenyl-1H-pyrazol-5-yl)-3-(5-((3-oxo-3,4-dihydropyrido[2,3-b]pyrazin-8-yl)oxy)pyridin-2-yl)urea]	–	++	–	25 to 50	–
